Experiment [1] addresses T1, 5-hydroxytryptamine receptor 1A (Homo sapiens) (UniProt P08908).
T1 sequence (whole entry): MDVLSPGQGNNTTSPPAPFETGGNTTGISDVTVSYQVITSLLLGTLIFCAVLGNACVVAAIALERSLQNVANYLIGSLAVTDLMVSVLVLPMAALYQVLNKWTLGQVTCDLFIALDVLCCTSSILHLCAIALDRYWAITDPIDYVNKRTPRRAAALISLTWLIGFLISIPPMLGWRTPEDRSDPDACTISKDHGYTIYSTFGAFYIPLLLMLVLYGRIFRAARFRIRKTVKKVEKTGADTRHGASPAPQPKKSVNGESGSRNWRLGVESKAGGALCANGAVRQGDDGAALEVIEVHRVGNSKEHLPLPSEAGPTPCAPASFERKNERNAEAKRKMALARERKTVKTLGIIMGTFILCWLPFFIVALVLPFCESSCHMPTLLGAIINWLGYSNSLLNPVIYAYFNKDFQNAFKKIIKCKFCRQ
As to the kind of experiment: Agonist activity at human 5HT1A receptor expressed in CHO membrane assessed as stimulation of [35S]GTPgammaS binding relative to 5HT. The format is functional, cell membranes. Background: Binding of GTPγS marks nucleotide exchange on a G protein.

In experiment [2] the target is T2, Adrenergic receptor alpha-1 (Rattus norvegicus, UniProt P15823+P23944+P43140).
T2 sequence (P15823 whole entry): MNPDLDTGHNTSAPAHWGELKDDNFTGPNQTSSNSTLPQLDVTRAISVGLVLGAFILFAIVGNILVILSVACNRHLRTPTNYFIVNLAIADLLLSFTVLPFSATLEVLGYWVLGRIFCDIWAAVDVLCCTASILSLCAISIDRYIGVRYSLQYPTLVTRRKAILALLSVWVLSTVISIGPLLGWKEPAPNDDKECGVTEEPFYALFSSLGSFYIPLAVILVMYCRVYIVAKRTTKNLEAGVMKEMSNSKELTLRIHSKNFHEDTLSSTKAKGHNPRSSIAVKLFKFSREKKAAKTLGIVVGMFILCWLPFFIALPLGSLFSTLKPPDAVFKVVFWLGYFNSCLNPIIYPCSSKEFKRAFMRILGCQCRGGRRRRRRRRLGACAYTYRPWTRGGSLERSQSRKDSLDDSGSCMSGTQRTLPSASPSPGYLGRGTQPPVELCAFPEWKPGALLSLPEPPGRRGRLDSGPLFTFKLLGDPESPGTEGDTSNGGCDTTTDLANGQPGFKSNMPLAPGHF
T2 sequence (P23944 whole entry): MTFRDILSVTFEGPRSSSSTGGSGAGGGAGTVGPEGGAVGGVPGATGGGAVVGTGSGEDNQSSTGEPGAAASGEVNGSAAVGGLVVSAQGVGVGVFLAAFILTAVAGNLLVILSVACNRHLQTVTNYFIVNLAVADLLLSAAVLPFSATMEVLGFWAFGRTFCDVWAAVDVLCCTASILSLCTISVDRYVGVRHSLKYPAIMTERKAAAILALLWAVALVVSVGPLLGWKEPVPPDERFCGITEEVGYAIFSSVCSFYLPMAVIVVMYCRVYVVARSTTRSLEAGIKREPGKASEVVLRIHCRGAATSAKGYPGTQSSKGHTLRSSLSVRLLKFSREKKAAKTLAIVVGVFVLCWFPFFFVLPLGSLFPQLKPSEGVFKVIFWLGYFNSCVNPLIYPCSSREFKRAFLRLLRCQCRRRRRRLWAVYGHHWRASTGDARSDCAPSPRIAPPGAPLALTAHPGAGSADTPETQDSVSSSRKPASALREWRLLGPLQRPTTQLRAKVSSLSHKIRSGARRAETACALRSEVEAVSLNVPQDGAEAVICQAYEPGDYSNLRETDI
T2 sequence (P43140 whole entry): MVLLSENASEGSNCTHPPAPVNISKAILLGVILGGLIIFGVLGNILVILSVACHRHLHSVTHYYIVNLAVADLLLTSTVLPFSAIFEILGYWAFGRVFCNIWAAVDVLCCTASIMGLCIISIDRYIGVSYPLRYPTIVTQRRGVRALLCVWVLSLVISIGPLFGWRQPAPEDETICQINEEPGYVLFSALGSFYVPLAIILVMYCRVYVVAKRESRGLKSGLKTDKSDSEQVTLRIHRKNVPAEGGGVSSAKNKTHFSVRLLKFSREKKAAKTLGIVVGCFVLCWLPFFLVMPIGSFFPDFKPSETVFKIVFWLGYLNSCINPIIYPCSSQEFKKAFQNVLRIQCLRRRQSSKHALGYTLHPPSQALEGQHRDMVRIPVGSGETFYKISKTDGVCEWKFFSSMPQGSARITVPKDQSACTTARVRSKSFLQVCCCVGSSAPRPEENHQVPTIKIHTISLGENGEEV
As to the kind of experiment: Displacement of [3H]prazosin from adrenergic alpha-1 receptor in rat cortical membranes. The format is cell membranes, Membrane. For orientation: Displacement assays read how much labelled ligand stays bound in the presence of the test substance.

In experiment [3] the target is Sodium-dependent serotonin transporter (Rattus norvegicus, UniProt P31652). The experiment is described as follows: Displacement of [3H]paroxetine from 5HT reuptake site of rat cortical 5HTT.
Sodium-dependent serotonin transporter, sequence (P31652 whole entry): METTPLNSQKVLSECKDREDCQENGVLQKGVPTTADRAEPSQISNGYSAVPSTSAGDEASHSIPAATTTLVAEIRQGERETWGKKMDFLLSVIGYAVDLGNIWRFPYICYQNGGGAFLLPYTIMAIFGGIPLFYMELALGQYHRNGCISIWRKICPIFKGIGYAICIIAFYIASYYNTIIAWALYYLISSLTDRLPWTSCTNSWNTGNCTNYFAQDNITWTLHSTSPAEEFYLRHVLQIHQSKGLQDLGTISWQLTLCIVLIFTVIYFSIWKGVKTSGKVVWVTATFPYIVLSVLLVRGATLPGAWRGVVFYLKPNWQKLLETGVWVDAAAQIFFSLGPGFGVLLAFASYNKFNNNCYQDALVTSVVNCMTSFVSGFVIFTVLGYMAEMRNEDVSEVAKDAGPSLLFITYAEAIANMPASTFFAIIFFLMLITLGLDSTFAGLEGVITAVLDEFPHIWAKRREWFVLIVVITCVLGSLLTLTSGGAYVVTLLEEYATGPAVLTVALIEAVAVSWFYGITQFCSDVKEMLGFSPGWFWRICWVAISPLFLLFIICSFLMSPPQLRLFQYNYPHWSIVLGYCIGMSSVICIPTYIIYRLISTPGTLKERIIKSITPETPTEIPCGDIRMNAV
The target of experiment [4] is T3, 5-hydroxytryptamine receptor 1A (Homo sapiens, UniProt P08908).
T3 sequence (P08908 whole entry): T1 sequence (whole entry)
The experiment is described as follows: Displacement of [3H]8-OH-DPAT from human 5HT1A receptor expressed in CHO cells. The format is cell-based.

Experiment [5] concerns the target T3, 5-hydroxytryptamine receptor 1A. As to the kind of experiment: Agonist activity at human 5HT1A receptor expressed in CHO membrane assessed as stimulation of [35S]GTP-gamma-S binding. The format is functional, cell membranes.
In experiment [6] the target is T2, Adrenergic receptor alpha-1. The experiment is described as follows: Displacement of [3H]prazosin from adrenergic alpha-1 receptor in rat cortical membranes at 1 uM. Type of experiment: cell membranes, Membrane.
Experiment [7] deals with T3, 5-hydroxytryptamine receptor 1A. As to the kind of experiment: Displacement of [3H]8-OH-DPAT from human 5HT1A receptor expressed in CHO cells at 1 uM. Type of experiment: cell-based.

One may read the Emax as the greatest response seen or fitted, relative to the assay's reference. Turning to `CCCN(CCCc1c[nH]c2ccc(F)cc12)C1COc2ccc3ncccc3c2C1` (single isomer, unassigned; (+)) [listing 1 of 2 here], the Emax in experiment [1] was 100%.
As to `Fc1ccc2[nH]cc(CCCNC3COc4ccc5ncccc5c4C3)c2c1` (stereo in doubt; (+)-5) [listing 1 of 2 here], in experiment [1], the Emax amounted to 100%.
Take `Fc1ccc2[nH]cc(CCCNC3COc4c(ccc5ncccc45)C3)c2c1` (single isomer, unassigned; (-)) [listing 1 of 2 here]: the maximal response (Emax) in experiment [1] was 100%.
On the same count and under the same terms, the value for `Fc1ccc2[nH]cc(CCCNC3COc4c(ccc5ncccc45)C3)c2c1` (single isomer, unassigned; (+)) [listing 1 of 2 here] was 75%.
The term Ki denotes the equilibrium dissociation constant of an inhibitor or competing ligand from its target. High values mean a looser hold on the target, low ones a stronger hold on the target. Consider `Fc1ccc2[nH]cc(CCCNC3COc4c(ccc5ncccc45)C3)c2c1` (racemic), for which the Ki came to 489.5 nM in experiment [2], 2.6 nM in experiment [3] and 105 nM in experiment [4].
Turning to `CCCN(CCc1c[nH]c2ccc(F)cc12)C1COc2ccc3ncccc3c2C1` (racemic), the Ki came out at 711.2 nM in experiment [2] and 62.8 nM in experiment [3].
Usually EC50 stands for the concentration giving half of the maximal effect. Consider `Fc1ccc2[nH]cc(CCCNC3COc4ccc5ncccc5c4C3)c2c1` (single isomer, unassigned; (-)) [listing 1 of 2 here], for which the Ki in experiment [2] turned out to be 221 nM; in experiment [4] it was 314 nM. Moreover, the EC50 in experiment [5] was 116 nM.
With `CCCN(CCCc1c[nH]c2ccc(F)cc12)C1COc2ccc3ncccc3c2C1` (stereo in doubt; (-)-6) [listing 1 of 2 here], in experiment [1], the Emax was determined as 55%.
For orientation: % inhibition means the change of the read-out against control, counted positive when it falls. High values mean a response far below the control, low ones a response near the control. Regarding `CCCN(CCCc1c[nH]c2ccc(F)cc12)C1COc2ccc3ncccc3c2C1` (racemic), the “% inhibition” value in experiment [6] is on record as 18%. Besides, the Ki in experiment [3] turned out to be 16.9 nM; in experiment [4], 63.5 nM.
Turning to `CCCN(CCCc1c[nH]c2ccc(F)cc12)C1COc2ccc3ncccc3c2C1` (stereo in doubt; (-)-6) [listing 2 of 2 here], the “% inhibition” value in experiment [6] was determined as 31%. Moreover, the affinity in experiment [3] corresponds to a Ki of 8.8 nM.
As to `Fc1ccc2[nH]cc(CCCNC3COc4c(ccc5ncccc45)C3)c2c1` (single isomer, unassigned; (-)) [listing 2 of 2 here], the results for the Ki in experiment [2], in experiment [3] and in experiment [4] were 387.7 nM, 1.2 nM and 67.8 nM, respectively. Besides, in experiment [5], the EC50 amounted to 172 nM.
Consider `Fc1ccc2[nH]cc(CCCNC3COc4ccc5ncccc5c4C3)c2c1` (stereo in doubt; (+)-5) [listing 2 of 2 here], for which the Ki in experiment [2] turned out to be 590.8 nM; in experiment [4], 23.9 nM.
With `Fc1ccc2[nH]cc(CCCCNC3COc4c(ccc5ncccc45)C3)c2c1` (racemic), the “% inhibition” value in experiment [6] is listed as 33%; in experiment [7], 47%. This compound also displayed an inhibition constant (Ki) in experiment [3] of 1.5 nM.
Regarding `Fc1ccc2[nH]cc(CCNC3COc4ccc5ncccc5c4C3)c2c1` (racemic), in experiment [7], the “% inhibition” value came out at 10%. The values for the Ki in experiment [2] and in experiment [3] were 1078.7 nM and 30.5 nM, respectively.
In experiment [2], `Fc1ccc2[nH]cc(CCCNC3COc4ccc5ncccc5c4C3)c2c1` (racemic) displayed a Ki of 324.2 nM.
For the compound `Fc1ccc2[nH]cc(CCCNC3COc4c(ccc5ncccc45)C3)c2c1` (single isomer, unassigned; (+)) [listing 2 of 2 here], the Ki is 623.7 nM in experiment [2], 3 nM in experiment [3] and 392 nM in experiment [4]. Also, the EC50 in experiment [5] amounted to 332 nM.
Regarding `COc1cccc2c1CC(NCCCc1c[nH]c3ccc(F)cc13)CO2` (racemic), the Ki in experiment [2] was 772.5 nM; in experiment [3], 9.2 nM; in experiment [4], 70.4 nM.
As for `CCCN(CCCc1c[nH]c2ccc(F)cc12)C1COc2ccc3ncccc3c2C1` (single isomer, unassigned; (+)) [listing 2 of 2 here], the “% inhibition” value in experiment [6] came to 38%. Moreover, the Ki is 19.8 nM in experiment [3] and 58 nM in experiment [4]. Moreover, the EC50 in experiment [5] was found to be 301 nM.
As to `CCCN(CCCc1c[nH]c2ccc(F)cc12)C1COc2c(ccc3ncccc23)C1` (racemic), the “% inhibition” value in experiment [7] is given as 46%. In addition, the Ki in experiment [2] is 1234.3 nM; in experiment [3] it was 12.4 nM.
As to `CCCN(CCCCc1c[nH]c2ccc(F)cc12)C1COc2c(ccc3ncccc23)C1` (racemic), the “% inhibition” value is given as 19% in experiment [6] and 21% in experiment [7].
With `Fc1ccc2[nH]cc(CCCNC3COc4ccc5ncccc5c4C3)c2c1` (single isomer, unassigned; (-)) [listing 2 of 2 here], the Emax in experiment [1] was determined as 86%.

The values above are taken from ChEMBL document CHEMBL1147955, “Novel pyridyl-fused 3-amino chroman derivatives with dual action at serotonin transporter and 5-HT1A receptor” (Bioorg Med Chem Lett, 2007).
